In patent US10421750B2, “Substituted morpholine derivatives having activity against pain” (ESTEVE PHARMACEUTICALS, S.A., priority 2015, dated 2019) one finds Ki data, which are given here for 31 compounds.

Structures are written as SMILES.

Sequence of human σ1 receptor (Q99720 whole entry): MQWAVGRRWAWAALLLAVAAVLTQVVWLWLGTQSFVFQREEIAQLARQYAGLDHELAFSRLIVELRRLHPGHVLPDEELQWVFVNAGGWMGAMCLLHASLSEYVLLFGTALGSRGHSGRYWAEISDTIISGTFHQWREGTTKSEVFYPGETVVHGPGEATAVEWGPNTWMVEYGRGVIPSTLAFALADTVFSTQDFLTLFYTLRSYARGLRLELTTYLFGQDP

This experiment addresses human σ1 receptor (Homo sapiens (Human), UniProt Q99720). Nature of the experiment: Human σ1 receptor radioligand assay ([3H](+)-pentazocine, transfected HEK-293 membranes). To be noted: binding to the σ1 receptor expressed as Ki, [3H](+)-pentazocine 5 nM. On the procedure:
Human σ1 Receptor Radioligand Assay
To investigate binding properties of test compounds to human σ1 receptor, transfected HEK-293 membranes and [^3H](+)-pentazocine (Perkin Elmer, NET-1056), as the radioligand, were used. The assay was carried out with 7 μg of membrane suspension, 5 nM of [^3H](+)-pentazocine in either absence or presence of either buffer or 10 μM Haloperidol for total and non-specific binding, respectively. Binding buffer contained Tris-HCl 50 mM at pH 8. Plates were incubated at 37° C. for 120 minutes. After the incubation period, the reaction mix was then transferred to MultiScreen HTS, FC plates (Millipore), filtered and plates were washed 3 times with ice-cold 10 mM Tris-HCL (pH7.4). Filters were dried and counted at approximately 40% efficiency in a MicroBeta scintillation counter (Perkin-Elmer) using EcoScint liquid scintillation cocktail
In turn, `COc1ccc(CN2CC(C3CCN(CCc4ccccc4)CC3)OC3(CC3)C2=O)cc1` (stereo not shown) [Example 1, 7-(4-Methoxybenzyl)-5-(1-phenethylpiperidin-4-yl)4-oxa-7-azaspiro[2.5]octan-8-one] returned an inhibitory constant (Ki) of at least 0.5 µM. As for `O=C(c1ccccc1)N1CC(C2CCN(CCc3ccccc3)CC2)OC2(CC2)C1` (stereo not shown) [Example 2, (5-(1-phenethylpiperidin-4-yl)-4-oxa-7-azaspiro[2.5]octan-7-yl)(phenyl)methanone], the figure is below 0.5 µM; as for `COc1ccc(CN2CC(C3CCN(Cc4ccccc4)CC3)OC3(CC3)C2=O)cc1` (stereo not shown) [Example 3, 5-(1-Benzylpiperidin-4-yl)-7-(4-methoxybenzyl)-4-oxa-7-azaspiro[2.5]octan-8-one], below 0.5 µM; as for `O=C(c1ccccc1)N1CC(C2CCN(Cc3ccccc3)CC2)OC2(CC2)C1` (stereo not shown) [Example 4, (5-(1-benzylpiperidin-4-yl)-4-oxa-7-azaspiro[2.5]octan-7-yl)(phenyl)methanone], below 0.1 µM. On to `CCN1CC(C2CCN(Cc3ccccc3)CC2)OC2(CC2)C1=O` (stereo not shown) [Example 5, 5-(1-benzylpiperidin-4-yl)-7-ethyl-4-oxa-7-azaspiro[2.5]octan-8-one], for which the inhibitory constant (Ki) is below 0.1 µM.

Take `CCN1CCC(C2CN(Cc3ccc(OC)cc3)C(=O)C3(CC3)O2)CC1` (stereo not shown) [Example 6, 5-(1-ethylpiperidin-4-yl)-7-(4-methoxybenzyl)-4-oxa-7-azaspiro[2.5]octan-8-one]: the inhibition constant (Ki) was at least 0.5 µM. In the case of `CCN1CC(C2CCN(CCc3ccccc3)CC2)OC2(CC2)C1=O` (stereo not shown) [Example 7, 7-Ethyl-5-(1-phenethylpiperidin-4-yl)-4-oxa-7-azaspiro[2.5]octan-8-one] it was below 0.5 µM; in that of `CC(C)N1CC(C2CCN(CCc3ccccc3)CC2)OC2(CC2)C1=O` (stereo not shown) [Example 8, 7-isopropyl-5-(1-phenethylpiperidin-4-yl)-4-oxa-7-azaspiro[2.5]octan-8-one], below 0.5 µM; in that of `O=C1N(c2ccccc2)CC(C2CCN(CCc3ccccc3)CC2)OC12CC2` (stereo not shown) [Example 9, 5-(1-Phenethylpiperidin-4-yl)-7-phenyl-4-oxa-7-azaspiro[2.5]octan-8-one], at least 0.5 µM. In the case of `O=C1N(c2ccccc2)CC(C2CCN(Cc3ccccc3)CC2)OC12CC2` (stereo not shown) [Example 10, 5-(1-benzylpiperidin-4-yl)-7-phenyl-4-oxa-7-azaspiro[2.5]octan-8-one] it was below 0.5 µM. In the case of `CCN1CC(C2CCN(CCc3ccccc3)CC2)OC2(CC2)C1` (stereo not shown) [Example 11, 7-Ethyl-5-(1-phenethylpiperidin-4-yl)-4-oxa-7-azaspiro[2.5]octane] it was below 0.5 µM; in that of `COc1ccc(CN2CC(C3CCN(Cc4ccccc4)CC3)OC3(CC3)C2)cc1` (stereo not shown) [Example 12, 5-(1-benzylpiperidin-4-yl)-7-(4-methoxybenzyl)-4-oxa-7-azaspiro[2.5]octane], below 0.1 µM.

Regarding `COc1ccc(CN2CC(C3CCN(CCc4ccccc4)CC3)OC3(CC3)C2)cc1` (stereo not shown) [Example 13, 7-(4-methoxybenzyl)-5-(1-phenethylpiperidin-4-yl)-4-oxa-7-azaspiro[2.5]octane], the Ki was at least 0.5 µM. With `CCN1CC(C2CCN(Cc3ccccc3)CC2)OC2(CC2)C1` (stereo not shown) [Example 14, 5-(1-benzylpiperidin-4-yl)-7-ethyl-4-oxa-7-asazaspiro[2.5]octane], the Ki is below 0.1 µM. In the case of `COc1ccc(CN2CC(C3CCN(CC(C)C)CC3)OC3(CC3)C2=O)cc1` (stereo not shown) [Example 15, 5-(1-isobutylpiperidin-4-yl)-7-(4-methoxybenzyl)-4-oxa-7-azaspiro[2.5]octan-8-one] it was at least 0.5 µM; in that of `COc1ccc(CN2CC(C3CCN(CCC(C)C)CC3)OC3(CC3)C2=O)cc1` (stereo not shown) [Example 16, 5-(1-isopentylpiperidin-4-yl)-7-(4-methoxybenzyl)-4-oxa-7-azaspiro[2.5]octan-8-one], below 0.5 µM; in that of `COc1ccc(CN2CC(C3CCN(Cc4ccccc4)CC3)OCC2=O)cc1` (stereo not shown) [Example 21, 6-(1-benzylpiperidin-4-yl)-4-(4-methoxybenzyl)morpholin-3-one], below 0.5 µM.

On to `CCN1CC(C2CN(CCC(C)C)C2)OC2(CC2)C1=O` (stereo not shown) [Example 22, 7-ethyl-5-(1-isopentylazetidin-3-yl)-4-oxa-7-azaspiro[2.5]octan-8-one], for which the inhibition constant (Ki) was below 0.5 µM.

For the compound `CCN1C[C@@H](C2CCN(Cc3ccccc3)CC2)O[C@@H](C)C1=O` [Example 23, (2S,6R)-6-(1-benzylpiperidin-4-yl)-4-ethyl-2-methylmorpholin-3-one], the Ki is at least 0.5 µM.

`CCN1C[C@H](C2CCN(Cc3ccccc3)CC2)O[C@@H](C)C1=O` [Example 24, (2S,6S)-6-(1-benzylpiperidin-4-yl)-4-ethyl-2-methylmorpholin-3-one] came in with an inhibitory constant (Ki) of at least 0.5 µM. `CCN1C[C@@H](C2CCN(Cc3ccccc3)CC2)O[C@H](C)C1=O` [Example 25, (2R,6R)-6-(1-benzylpiperidin-4-yl)-4-ethyl-2-methylmorpholin-3-one] came in with a Ki of at least 0.5 µM. As for `CCN1C[C@H](C2CCN(Cc3ccccc3)CC2)O[C@H](C)C1=O` [Example 26, (2R,6S)-6-(1-benzylpiperidin-4-yl)-4-ethyl-2-methylmorpholin-3-one], the figure is at least 0.5 µM; as for `CCN1C[C@@H](C2CCN(Cc3ccc(F)cc3)CC2)O[C@@H](C)C1=O` [Example 27, (2S,6R)-4-ethyl-6-(1-(4-fluorobenzyl)piperidin-4-yl)-2-methylmorpholin-3-one], at least 0.5 µM.

`CCN1C[C@H](C2CCN(Cc3ccc(F)cc3)CC2)O[C@@H](C)C1=O` [Example 28, (2S,6S)-4-ethyl-6-(1-(4-fluorobenzyl)piperidin-4-yl)-2-methylmorpholin-3-one] had a Ki of at least 0.5 µM. Compound `CCN1C[C@@H](C2CCN(Cc3ccc(F)cc3)CC2)O[C@H](C)C1=O` [Example 29, (2R,6R)-4-ethyl-6-(1-(4-fluorobenzyl)piperidin-4-yl)-2-methylmorpholin-3-one] returned an inhibition constant (Ki) of at least 0.5 µM. As for `CCN1C[C@H](C2CCN(Cc3ccc(F)cc3)CC2)O[C@H](C)C1=O` [Example 30, (2R,6S)-4-ethyl-6-(1-(4-fluorobenzyl)piperidin-4-yl)-2-methylmorpholin-3-one], the figure is at least 0.5 µM; as for `CCN1C[C@@H](C2CCN(Cc3ccc(C#N)cc3)CC2)O[C@@H](C)C1=O` [Example 31, 4-((4-((2R,6S)-4-ethyl-6-methyl-5-oxomorpholin-2-yl)piperidin-1-yl)methyl)benzonitrile], at least 0.5 µM; as for `CCN1C[C@H](C2CCN(Cc3ccc(C#N)cc3)CC2)O[C@@H](C)C1=O` [Example 32, 4-((4-((2S,6S)-4-ethyl-6-methyl-5-oxomorpholin-2-yl)piperidin-1-yl)methyl)benzonitrile], at least 0.5 µM. As for `CCN1C[C@@H](C2CCN(Cc3ccc(C#N)cc3)CC2)O[C@H](C)C1=O` [Example 33, 4-((4-((2R,6R)-4-ethyl-6-methyl-5-oxomorpholin-2-yl)piperidin-1-yl)methyl)benzonitrile], the figure is at least 0.5 µM; as for `CCN1C[C@H](C2CCN(Cc3ccc(C#N)cc3)CC2)O[C@H](C)C1=O` [Example 34, 4-((4-((2S,6R)-4-ethyl-6-methyl-5-oxomorpholin-2-yl)piperidin-1-yl)methyl)benzonitrile], at least 0.5 µM. In the case of `CCN1CC(C2CCN(Cc3ccc(F)cc3)CC2)OC2(CC2)C1=O` (stereo not shown) [Example 35, 7-ethyl-5-(1-(4-fluorobenzyl)piperidin-4-yl)-4-oxa-7-azaspiro[2.5]octan-8-one] it was at least 0.5 µM.

Broadly, the Ki is a dissociation constant, usually derived from enzyme kinetics or from competition with a known ligand. A higher Ki goes with lower affinity.
